According to US11505797B2, “Gene knockout of variant NRF2 for treatment of cancer” (Christiana Care Health Services, Inc., priority 2019, dated 2022):
Entries after “also recorded” stand apart in the source; their conditions may differ.

Tests used:
[1] = system: NRF2 locus (exon 4) in A549 cells; assay: TIDE indel analysis of bulk sorted eGFP+ A549 cells transfected with pX458 gRNA1 or gRNA2; format: cell-based, human; conditions: bulk sorted eGFP+ A549 population, pX458 plasmid
Protocol: A549 cells were transfected at a concentration of 5×10^5 cells/100 μl in 4 mm gap cuvette (BioExpress, Kaysville, Utah, USA). NRF2 targeting pX458 constructs were separately electroporated (250 V, LV, 13 ms pulse length, 2 pulses, 1 s interval) into A549 cells using a Bio-Rad Gene Pulser XCell Electroporation System (Bio-Rad Laboratories, Hercules, Calif., USA). Cells were then recovered in 6-well plates with complete growth media at 37° C. for 72 hours prior to sorting. […] Clones were expanded and transferred to larger plates as the individual clones reached confluence, with DNA isolation occurring when cells reached confluence in a six-well plate (1×10^6 cells/mL). […]
FIG. 1B illustrates the functional domains of the NRF2 protein including the KEAP1 Binding Domain, Transactivation Domain, Repressor Binding Domain, β-TrCP Binding Domain, DNA Binding Domain and the Transcriptional Activation Domain. […] To evaluate the efficiency of CRISPR-directed NRF2 knockout in the total targeted population, eGFP+ cells were isolated as a population, and the degree of genetic disruption at the NRF2 locus in cells, transfected with either gRNA1 or gRNA2 pX458, was determined. The sorted populations were Sanger-sequenced and the resulting trace files were analyzed for the presence of indels, a marker for gene disruption. […]

[2] = system: NRF2 knockout A549 cells (2-11); assay: MTS cell proliferation assay, NRF2 knockout A549 cells (2-11); format: cell-based, human; conditions: 2-11 knockout A549, increasing dosages, 72 hours; listed as Carboplatin
Protocol: Cell viability was evaluated using the CellTiter 96 Aqueous Non-Radioactive Cell Proliferation Assay (Promega, Madison, Wis.). A549 cell lines were plated at 2×10^3 cells per well and allowed to culture for 24 hours. The cell media was then aspirated, the cells washed with PBS, then exposed to the MTS reagent for 3 hours. After 3 hours of MTS bio-reduction by proliferating cells, the formazan product's absorbance was measured using a 450 nm filter on an Infinite 2000 PRO microplate reader (Tecan, Mannadorf, Switzerland). Cell viability after drug exposure was evaluated using the CellTiter 96 Aqueous Non-Radioactive Cell Proliferation Assay. A549 cell lines were plated at 2×10^3 cells per well and allowed to culture for 24 hours. The cells were then treated with cisplatin, carboplatin, or a combination of cisplatin and vinorelbine for three days. The cell media was then aspirated, the cells washed with PBS, then exposed to the MTS reagent for 3 hours. After 3 hours of MTS bio-reduction by proliferating cells, the formazan product's absorbance was measured using a 450 nm filter on an Infinite 2000 PRO microplate reader.

[3] = system: NRF2 knockout A549 (2-11) tumors; assay: Xenograft mouse model, NRF2 knockout A549 (2-11) tumors; format: in vivo, athymic nude mice; conditions: tail vein day 0, 3, 6, 9; cisplatin 2 mg/kg; cisplatin 5 mg/kg + vinorelbine 5 mg/kg; carboplatin 25 mg/kg
Protocol: The human xenograft model was established using methodology reported previously. Kellar et al., Biomed Res. Int. […] Female athymic nude mice (Envigo, 5-6 weeks old) were used in this study. Approximately 5×10^6 cells (wild type A549 or homozygous knockout (clonal expansion 2-11)) suspended in PBS with 20% Matrigel were injected subcutaneously into right flank of each mouse. Tumor volume was measured three times a week with a digital caliper once palpable, and calculated using the formula, tumor size=ab^2/2, where ‘a’ is the larger and ‘b’ is the smaller of the two dimensions. When tumors grew up to a mean volume of around 100 mm^3, A549 tumor bearing mice or A549-2-11 tumor bearing mice were randomly divided into 7 groups (N=5 for each group) respectively and subject to dose/regimen-finding study. […] Tumor volume and body weight was closely monitored over time. After 16 days, the animals were sacrificed, with tumor removed, weighed and processed for molecular analysis. Mice were euthanized. The data were expressed as mean±SD. Student's t-test and one-way or two-way ANOVA was used to assess the significance of difference. A P value<0.05 was considered significant.
A549 xenografts were resected on day 16, snap frozen in liquid nitrogen and stored in −80° C. until usage. All immunofluorescence staining was performed as previously described. Wang et al., Investig. Opthalmology Vis. […] Briefly, tumors were embedded in Optimum Cutting Temperature (Tissue Tek, Torrance, Calif., USA) and 16-μm-thick sections were obtained with a Leica CM3050 cryostat (Leica Microsystems, Buffalo Grove, Ill., USA), and mounted on slides. Slides were fixed and incubated with blocking buffer for 1 hour at room temperature. […] Sections were washed in PBS, then mounted with SlowFade Gold antifade mountant with DAPI (Invitrogen, Carlsbad, Calif., USA). Images were obtained with a Zeiss Observer.Z1 microscope (Carl Zeiss, Inc., Gottingen, Germany). The TUNEL assay was conducted with In Situ Cell Death Detection Kit, Fluorescein (Roche, Base, Switzerland), following the manufacturer's instructions. […]

[4] = system: wildtype NRF2 gene in the H1703 cell line; assay: TIDE indel efficiency of R34G sgRNA at various lengths in H1703 parental cells; format: cell-based, human; conditions: for total indel efficiency: 250 pmol sgRNA to 50 pmol Cas9, 72 hours
Protocol: H1703 parental cells were cultured 48 hours prior to transfections and about 60-80% confluent on the day of transfection. 10^6 cells per 100 ul was used per transfection and each condition was run in duplicate.
Each CRISPR/Cas9 RNP was complexed at a 5:1 ratio of sgRNA to Cas9. 250 pmol of sgRNA was complexed at room temperature with 50 pmol of Cas9, in duplicate. The RNP complex was then transfected into H1703 parental cells using nucleofection (Lonza) with the SF Nucleofection Kit. Transfected cells were plated and allowed to recover for 72 hours. After the 72 hours, each sample of cells was collected by trypsinization and pelleted for further analysis. Cell pellets were used for genomic DNA isolation, PCR and Sanger sequencing.
It has been reported that gRNA length can affect target specificity (Fu et al., Nat. Biotechnol. 32:279-84 (2014)). The efficiency of indel formation of the various length R34G sgRNAs to the wildtype “on-target” site was evaluated. sgRNAs for each length were synthetized and complexed with purified Cas9. Replicate experiments were carried out with H1703 lung squamous cells that were transfected with each RNP, recovered for 72 hours, then analyzed for indel formation. No R34G site is present in the wildtype NRF2 gene in the H1703 cell line, therefore only minimal or background gene editing activity is expected.

## 5′-UCGAUGUGACCGGGAAUAUCAGG-3′ (expressed or natural sequence) [gRNA1]
[1]
  indels by TIDE (NRF2 disruption): significant amount of indels

## 5′-UGAUUUAGACGGUAUGCAACAGG-3′ (expressed or natural sequence) [gRNA2]
[1]
  indels by TIDE (NRF2 disruption): significant amount of indels

## N.N.O=C([O-])C1(C(=O)[O-])CCC1.[Pt+2] [carboplatin]
[2]
  chemosensitivity (MTS cell proliferation): the cell killing response reflected what was observed in the experiments using cisplatin
[3]
  tumor growth over 16 days: the same reduced proliferation and growth trend described above is reproduced; also recorded: significant reduction in tumor cell proliferation

## AAGATATAGATCTTGGAGTAAG (listed as DNA, chemistry not given here) [22 nucleotide length sgRNA]
[4]; first value (replicate 1)
  sequence remaining wildtype: 98.2%
  total indel efficiency: 1.2%
[4]; replicate 2
  sequence remaining wildtype: 96.5%
  total indel efficiency: 2.3%

## ATAGATCTTGGAGTAAG (listed as DNA, chemistry not given here) [17 nucleotide length sgRNA]
[4]; first value (replicate 1)
  sequence remaining wildtype: 98.0%
  total indel efficiency: 1.5%
[4]; replicate 2
  sequence remaining wildtype: 97.7%
  total indel efficiency: 1.6%

## CAAGATATAGATCTTGGAGTAAG (listed as DNA, chemistry not given here) [23 nucleotide length sgRNA]
[4]; first value (replicate 1)
  sequence remaining wildtype: 95.8%
  total indel efficiency: 3.4%
[4]; replicate 2
  sequence remaining wildtype: 95.2%
  total indel efficiency: 3.8%

## GATATAGATCTTGGAGTAAG (listed as DNA, chemistry not given here) [20 nucleotide length sgRNA]
[4]; first value (replicate 1)
  sequence remaining wildtype: 98.4%
  total indel efficiency: 0.8%
[4]; replicate 2
  sequence remaining wildtype: 96.2%
  total indel efficiency: 2.9%

## TATAGATCTTGGAGTAAG (listed as DNA, chemistry not given here) [18 nucleotide length sgRNA]
[4]; first value (replicate 1)
  sequence remaining wildtype: 97.4%
  total indel efficiency: 1.9%
[4]; replicate 2
  sequence remaining wildtype: 96.6%
  total indel efficiency: 2.6%
